Data from the supplement of paper PMC10307832.

Legend:
Test in all cases: relative viability (nuclei count vs DMSO), 5 days (fraction); higher = more cells survive
NCI-H1734 = test system: NCI-H1734
Outline: (§1)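 Relative viability is defined as nuclei in treated wells over nuclei in vehicle wells. Duplicate plates were run and medians reported. Lung cancer cell lines in 1536-well plates were dosed by pin tool one day after seeding, with one drug or with a fixed anchor-drug dose plus five library-drug doses (not always all listed) in √10 steps, and nuclei were counted after 5 days.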

ChaGo-K-1 = test system: ChaGo-K-1
Outline: as §1

NCI-H1355 = test system: NCI-H1355
Outline: as §1

NCI-H2405 = test system: NCI-H2405
Outline: as §1

LCLC-97TM1 = test system: LCLC-97TM1
Outline: as §1

NCI-H460 = test system: NCI-H460
Outline: as §1

HCC-15 = test system: HCC-15
Outline: as §1

NCI-H1993 = test system: NCI-H1993
Outline: as §1

201T = test system: 201T
Outline: as §1

NCI-H2085 = test system: NCI-H2085
Outline: as §1

HCC-78 = test system: HCC-78
Outline: as §1

NCI-H3122 = test system: NCI-H3122
Outline: as §1

C=C1C(=O)O[C@@H](CCCCCCCC)[C@@H]1C(=O)O [C-75] + Nc1ncn([C@H]2C[C@H](O)[C@@H](CO)O2)c(=O)n1 [Decitabine] (partner 2 µM) was tested, and the relative viability (NCI-H1734; first compound 2.53 µM) was 0.264, the relative viability (NCI-H1734; first compound 8 µM) was 0.448 and the relative viability (ChaGo-K-1; first compound 0.08 µM) was 0.505. For the same compound, the relative viability (ChaGo-K-1; first compound 0.253 µM) was 0.504, the relative viability (ChaGo-K-1; first compound 0.8 µM) was 0.503 and the relative viability (ChaGo-K-1; first compound 2.53 µM) was 0.423. The relative viability (ChaGo-K-1; first compound 8 µM) was 0.552, the relative viability (NCI-H1355; first compound 0.08 µM) was 0.333 and the relative viability (NCI-H1355; first compound 0.253 µM) was 0.374. For the same compound, the relative viability (NCI-H1355; first compound 0.8 µM) was 0.36, the relative viability (NCI-H1355; first compound 2.53 µM) was 0.324 and the relative viability (NCI-H1355; first compound 8 µM) was 0.355. For the same compound, the relative viability (NCI-H2405; first compound 0.08 µM) was 0.807, the relative viability (NCI-H2405; first compound 0.253 µM) was 0.423 and the relative viability (NCI-H2405; first compound 0.8 µM) was 0.714. The relative viability (NCI-H2405; first compound 2.53 µM) was 0.681, the relative viability (NCI-H2405; first compound 8 µM) was 0.789 and the relative viability (LCLC-97TM1; first compound 0.08 µM) was 0.197. For the same compound, the relative viability (LCLC-97TM1; first compound 0.253 µM) was 0.254, the relative viability (LCLC-97TM1; first compound 0.8 µM) was 0.206 and the relative viability (LCLC-97TM1; first compound 2.53 µM) was 0.215. It also gave a relative viability (LCLC-97TM1; first compound 8 µM) of 0.233, a relative viability (NCI-H460; first compound 0.08 µM) of 0.469 and a relative viability (NCI-H460; first compound 0.253 µM) of 0.454. For the same compound, the relative viability (NCI-H460; first compound 0.8 µM) was 0.46, the relative viability (NCI-H460; first compound 2.53 µM) was 0.198 and the relative viability (NCI-H460; first compound 8 µM) was 0.492. It also gave a relative viability (HCC-15; first compound 0.08 µM) of 0.691, a relative viability (HCC-15; first compound 0.253 µM) of 0.636 and a relative viability (HCC-15; first compound 0.8 µM) of 0.551. For the same compound, the relative viability (HCC-15; first compound 2.53 µM) was 0.543, the relative viability (HCC-15; first compound 8 µM) was 0.626 and the relative viability (NCI-H1993; first compound 0.08 µM) was 0.695. It also gave a relative viability (NCI-H1993; first compound 0.253 µM) of 0.685, a relative viability (NCI-H1993; first compound 0.8 µM) of 0.605 and a relative viability (NCI-H1993; first compound 2.53 µM) of 0.549. It also gave a relative viability (NCI-H1993; first compound 8 µM) of 0.571, a relative viability (201T; first compound 0.08 µM) of 0.844 and a relative viability (201T; first compound 0.253 µM) of 0.938. The relative viability (201T; first compound 0.8 µM) was 0.842, the relative viability (201T; first compound 2.53 µM) was 0.627 and the relative viability (201T; first compound 8 µM) was 0.813. It also gave a relative viability (NCI-H2085; first compound 0.08 µM) of 0.535, a relative viability (NCI-H2085; first compound 0.253 µM) of 0.587 and a relative viability (NCI-H2085; first compound 0.8 µM) of 0.465. The relative viability (NCI-H2085; first compound 2.53 µM) was 0.447, the relative viability (NCI-H2085; first compound 8 µM) was 0.434 and the relative viability (HCC-78; first compound 0.08 µM) was 0.693. For the same compound, the relative viability (HCC-78; first compound 0.253 µM) was 0.676, the relative viability (HCC-78; first compound 0.8 µM) was 0.72 and the relative viability (HCC-78; first compound 8 µM) was 0.667. For the same compound, the relative viability (NCI-H3122; first compound 0.08 µM) was 0.423, the relative viability (NCI-H3122; first compound 0.253 µM) was 0.486 and the relative viability (NCI-H3122; first compound 0.8 µM) was 0.355. The relative viability (NCI-H3122; first compound 2.53 µM) was 0.346 and the relative viability (NCI-H3122; first compound 8 µM) was 0.455.
